Consider 26 molecules from patent US8492376B2, “Heteroaryl-cyclohexyl-tetraazabenzo[e]azulenes” (Hoffmann-La Roche Inc., priority 2010, dated 2013).

Molecules are shown by their SMILES. Structures can show the parent of a compound that is named as a salt.

This experiment has as its target T1, human V1a receptor (Homo sapiens, UniProt P37288).
T1 construct: expressed in transfected cells; host or cells: HEK293 cells, transiently transfected; cell membranes
Nature of the experiment: human V1a receptor binding studies (3H-Vasopressin, SPA beads). The settings on record: membranes from HEK293 cells transiently transfected with human V1a receptor, Ki calculated from IC50 by the Cheng-Prussoff equation, read-out: pKi (hV1a) (converted). The protocol:
The human V1a receptor was cloned by RT-PCR from total human liver RNA. The coding sequence was subcloned in an expression vector after sequencing to confirm the identity of the amplified sequence. […] Cell membranes were prepared from HEK293 cells transiently transfected with the expression vector and grown in 20 liter fermenters with the following protocol.
50 g of cells are resuspended in 30 ml freshly prepared ice cold Lyses buffer (50 mM HEPES, 1 mM EDTA, 10 mM magnesium dichloride adjusted to pH=7.4+complete cocktail of protease inhibitor (Roche Diagnostics)). Homogenized with Polytron for 1 min and solicited on ice for 2×2 minutes at 80% intensity (Vibrate solicitor). The preparation is centrifuged 20 min at 500 g at 4° C., the pellet is discarded and the supernatant centrifuged 1 hour at 43′000 g at 4° C. (19′000 rpm). The pellet is resuspended in 12.5 ml Lyses buffer+12.5 ml sucrose 20% and homogenized using a Polytron for 1-2 min. The protein concentration is determined by the Bradford method and aliquots are stored at −80° C. until use. For binding studies 60 mg Yttrium silicate SPA beads (Habersham®) are mixed with an aliquot of membrane in binding buffer (50 mM Tris, 120 mM sodium chloride, 5 mM potassium chloride, 2 mM calcium dichloride, 10 mM magnesium dichloride) for 15 minutes with mixing. 50 μl of bead/membrane mixture is then added to each well of a 96 well plate, followed by 50 μl of 4 nM 3H-Vasopressin (American Radiolabeled Chemicals). For total binding measurement 100 μl of binding buffer are added to the respective wells, for non-specific binding 100 μl of 8.4 mM cold vasopressin and for compound testing 100 μl of a serial dilution of each compound in 2% dimethyl sulfoxide. The plate is incubated 1 h at room temperature, centrifuged 1 min at 1000 g and counted on a Packard Top-Count. Non-specific binding counts are subtracted from each well and data is normalized to the maximum specific binding set at 100%. To calculate an IC50 the curve is fitted using a non-linear regression model (XLfit) and the Ki is calculated using the Cheng-Prussoff equation.

T1 sequence (P37288 whole entry): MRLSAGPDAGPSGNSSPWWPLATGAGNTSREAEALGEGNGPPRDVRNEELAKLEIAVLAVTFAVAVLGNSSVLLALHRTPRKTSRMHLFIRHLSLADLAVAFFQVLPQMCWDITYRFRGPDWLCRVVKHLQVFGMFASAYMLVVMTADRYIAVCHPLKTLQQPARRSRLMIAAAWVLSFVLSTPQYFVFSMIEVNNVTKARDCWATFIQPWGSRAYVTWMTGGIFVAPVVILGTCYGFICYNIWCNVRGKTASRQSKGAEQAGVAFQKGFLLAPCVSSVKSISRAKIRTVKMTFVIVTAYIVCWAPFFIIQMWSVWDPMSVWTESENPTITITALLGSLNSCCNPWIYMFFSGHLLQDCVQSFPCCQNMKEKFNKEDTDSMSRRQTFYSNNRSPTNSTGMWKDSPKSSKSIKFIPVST

In the case of `CNCCN1Cc2cc(Cl)ccc2-n2c(nnc2[C@H]2CC[C@H](c3ncccc3F)CC2)C1` [Example 36, trans-(2-{8-Chloro-1-[4-(3-fluoro-pyridin-2-yl)-cyclohexyl]-4H,6H-2,3,5,10b-tetraaza-benzo[e]azulen-5-yl}-ethyl)-methyl-amine], the Ki is 28.2 nM.
In the case of `COc1cccc([C@H]2CC[C@H](c3nnc4n3-c3ccc(Cl)cc3CN(C)C4)CC2)n1` [Example 15, trans-8-Chloro-1-[4-(6-methoxy-pyridin-2-yl)-cyclohexyl]-5-methyl-5,6-dihydro-4H-2,3,5,10b-tetraaza-benzo[e]azulene], the Ki was 3.31 nM.
The value for `CN1Cc2cc(F)ccc2-n2c(nnc2[C@H]2CC[C@H](c3ncccc3F)CC2)C1` [Example 44, trans-8-Fluoro-[4-(3-fluoro-pyridin-2-yl)-cyclohexyl]-5-methyl-5,6-dihydro-4H-2,3,5,10b-tetraaza-benzo[e]azulene] was 8.91 nM; that for `CC(C)(C)OC(=O)N1Cc2cc(F)ccc2-n2c(nnc2[C@H]2CC[C@H](c3ncccc3F)CC2)C1` [Example 42, trans-8-Fluoro-[4-(3-fluoro-pyridin-2-yl)-cyclohexyl]-4H,6H-2,3,5,10b-tetraaza-benzo[e]azulene-5-carboxylic acid tert-butyl ester] was 0.525 nM; that for `CC(C)(C)OC(=O)N1Cc2cc(Cl)ccc2-n2c(nnc2[C@H]2CC[C@H](c3ncccc3Cl)CC2)C1` [Example 82, trans-8-Chloro-1-[4-(3-chloro-pyridin-2-yl)-cyclohexyl]-4H,6H-2,3,5,10b-tetraaza-benzo[e]azulene-5-carboxylic acid tert-butyl ester] was 0.501 nM.
For the molecule `Clc1ccc2c(c1)CNCc1nnc([C@H]3CC[C@@H](c4ncccn4)CC3)n1-2` [Example 61, cis-8-Chloro-1-(4-pyrimidin-2-yl-cyclohexyl)-5,6-dihydro-4H-2,3,5,10b-tetraaza-benzo[e]azulene], the Ki is 427 nM.
In the case of `Cc1nccnc1[C@H]1CC[C@H](c2nnc3n2-c2ccc(Cl)cc2CN(C)C3)CC1` [Example 77, trans-8-Chloro-5-methyl-1-[4-(3-methyl-pyrazin-2-yl)-cyclohexyl]-5,6-dihydro-4H-2,3,5,10b-tetraaza-benzo[e]azulene] it was 5.13 nM; in that of `CC(C)(C)OC(=O)N1Cc2cc(Cl)ccc2-n2c(nnc2[C@H]2CC[C@@H](c3ncccn3)CC2)C1` [Example 58, cis-8-Chloro-1-(4-pyrimidin-2-yl-cyclohexyl)-4H,6H-2,3,5,10b-tetraaza-benzo[e]azulene-5-carboxylic acid tert-butyl ester], 20.4 nM.
Regarding `CN1Cc2cc(Cl)ccc2-n2c(nnc2[C@H]2CC[C@H](c3cc(Cl)ccn3)CC2)C1` [Example 27, trans-8-Chloro-1-[4-(4-chloro-pyridin-2-yl)-cyclohexyl]-5-methyl-5,6-dihydro-4H-2,3,5,10b-tetraaza-benzo[e]azulene], the Ki was 0.537 nM.
On to `Clc1ccc2c(c1)CNCc1nnc([C@H]3CC[C@H](c4cnccn4)CC3)n1-2` [Example 70, trans-8-Chloro-1-(4-pyrazin-2-yl-cyclohexyl)-5,6-dihydro-4H-2,3,5,10b-tetraaza-benzo[e]azulene], for which the Ki is 15.1 nM.
Take `CC(C)(C)OC(=O)N1Cc2cc(Cl)ccc2-n2c(nnc2[C@H]2CC[C@H](c3cccc(F)n3)CC2)C1` [Example 19, trans-8-Chloro-1-[4-(6-fluoro-pyridin-2-yl)-cyclohexyl]-4H,6H-2,3,5,10b-tetraaza-benzoazulene-5-carboxylic acid tert-butyl ester]: the Ki is 0.603 nM.
In the case of `CC(C)(C)OC(=O)N1Cc2cc(Cl)ccc2-n2c(nnc2[C@H]2CC[C@H](c3ccccn3)CC2)C1` [Example 1, trans-8-Chloro-1-(4-pyridin-2-yl-cyclohexyl)-4H,6H-2,3,5,10b-tetraaza-benzo[e]azulene-5-carboxylic acid tert-butyl ester] it was 1.91 nM; in that of `Fc1cccc([C@H]2CC[C@H](c3nnc4n3-c3ccc(Cl)cc3CNC4)CC2)n1` [Example 20, trans-8-Chloro-1-[4-(6-fluoro-pyridin-2-yl)-cyclohexyl]-5,6-dihydro-4H-2,3,5,10b-tetraaza-benzo[e]azulene], 16.6 nM; in that of `COc1cccc([C@H]2CC[C@H](c3nnc4n3-c3ccc(Cl)cc3CNC4)CC2)n1` [Example 14, trans-8-Chloro-1-[4-(6-methoxy-pyridin-2-yl)-cyclohexyl]-5,6-dihydro-4H-2,3,5,10b-tetraaza-benzo[e]azulene], 56.2 nM.
`CN1Cc2cc(Cl)ccc2-n2c(nnc2[C@H]2CC[C@H](c3ccc(F)cn3)CC2)C1` [Example 24, trans-8-Chloro-1-[4-(5-fluoro-pyridin-2-yl)-cyclohexyl]-5-methyl-5,6-dihydro-4H-2,3,5,10b-tetraaza-benzo[e]azulene]: the Ki was 1 nM.
Consider `Cc1cc(C)nc([C@H]2CC[C@H](c3nnc4n3-c3ccc(Cl)cc3CNC4)CC2)n1` [Example 64, trans-8-Chloro-1-[4-(4,6-dimethyl-pyrimidin-2-yl)-cyclohexyl]-5,6-dihydro-4H-2,3,5,10b-tetraaza-benzo[e]azulene hydrochloride], for which the Ki is 18.6 nM.
With `CCc1cccc([C@H]2CC[C@H](c3nnc4n3-c3ccc(Cl)cc3CN(C)C4)CC2)n1` [Example 9, trans-8-Chloro-1-[4-(6-ethyl-pyridin-2-yl)-cyclohexyl]-5-methyl-5,6-dihydro-4H-2,3,5,10b-tetraaza-benzo[e]azulene], the Ki was 1.1 nM.
In the case of `CS(=O)(=O)N1Cc2cc(Cl)ccc2-n2c(nnc2[C@H]2CC[C@H](c3ncccc3F)CC2)C1` [Example 40, trans-8-Chloro-1-[4-(3-fluoro-pyridin-2-yl)-cyclohexyl]-5-methanesulfonyl-5,6-dihydro-4H-2,3,5,10b-tetraaza-benzo[e]azulene] it was 0.178 nM.
As for `Fc1ccc([C@H]2CC[C@H](c3nnc4n3-c3ccc(Cl)cc3CNC4)CC2)nc1` [Example 23, trans-8-Chloro-1-[4-(5-fluoro-pyridin-2-yl)-cyclohexyl]-5,6-dihydro-4H-2,3,5,10b-tetraaza-benzo[e]azulene dihydrochloride], the Ki is 7.24 nM.
As to `Cc1cccc([C@H]2CC[C@H](c3nnc4n3-c3ccc(Cl)cc3CN(C)C4)CC2)n1` [Example 6, trans-8-Chloro-1-[4-(6-methyl-pyridin-2-yl)-cyclohexyl]-5-methyl-5,6-dihydro-4H-2,3,5,10b-tetraaza-benzo[e]azulene], the Ki is 0.891 nM.
In the case of `Cc1nccnc1[C@H]1CC[C@H](c2nnc3n2-c2ccc(Cl)cc2CNC3)CC1` [Example 76, trans-8-Chloro-1-[4-(3-methyl-pyrazin-2-yl)-cyclohexyl]-5,6-dihydro-4H-2,3,5,10b-tetraaza-benzo[e]azulene], the Ki is 44.7 nM.
`Cc1nccc([C@H]2CC[C@H](c3nnc4n3-c3ccc(Cl)cc3CN(C)C4)CC2)n1` [Example 68, trans-8-Chloro-5-methyl-1-[4-(2-methyl-pyrimidin-4-yl)-cyclohexyl]-5,6-dihydro-4H-2,3,5,10b-tetraaza-benzo[e]azulene]: the Ki is 126 nM.
The value for `CC(C)(C)OC(=O)N1Cc2cc(Cl)ccc2-n2c(nnc2[C@H]2CC[C@@H](c3ncccc3F)CC2)C1` [Example 45, cis-8-Chloro-1-[4-(3-fluoro-pyridin-2-yl)-cyclohexyl]-4H,6H-2,3,5,10b-tetraaza-benzo[e]azulene-5-carboxylic acid tert-butyl ester] was 5.01 nM; that for `CC(C)(C)OC(=O)N1Cc2cc(Cl)ccc2-n2c(nnc2[C@H]2CC[C@H](c3ncc(F)cc3F)CC2)C1` [Example 85, trans-8-Chloro-1-[4-(3,5-difluoro-pyridin-2-yl)-cyclohexyl]-4H,6H-2,3,5,10b-tetraaza-benzo[e]azulene-5-carboxylic acid tert-butyl ester] was 1.1 nM; that for `CN(C)S(=O)(=O)N1Cc2cc(Cl)ccc2-n2c(nnc2[C@H]2CC[C@H](c3ncccc3F)CC2)C1` [Example 41, trans-8-Chloro-1-[4-(3-fluoro-pyridin-2-yl)-cyclohexyl]-4H,6H-2,3,5,10b-tetraaza-benzo[e]azulene-5-sulfonic acid dimethylamide] was 0.603 nM.
As for `CC(C)(C)OC(=O)N1Cc2cc(Cl)ccc2-n2c(nnc2[C@H]2CC[C@H](c3cccc(Cl)n3)CC2)C1` [Example 16, trans-8-Chloro-1-[4-(6-chloro-pyridin-2-yl)-cyclohexyl]-4H,6H-2,3,5,10b-tetraaza-benzoazulene-5-carboxylic acid tert-butyl ester], the Ki was 0.302 nM.
